Here are results for five compounds from patent US8673913B2, “SHP-2 phosphatase inhibitor” (Case Western Reserve University, priority 2009, dated 2014).

Test [1] deals with T1, SHP-2 PTP domain GST fusion protein (Homo sapiens, UniProt Q06124).
T1 sequence (Q06124 247-517 limits assumed): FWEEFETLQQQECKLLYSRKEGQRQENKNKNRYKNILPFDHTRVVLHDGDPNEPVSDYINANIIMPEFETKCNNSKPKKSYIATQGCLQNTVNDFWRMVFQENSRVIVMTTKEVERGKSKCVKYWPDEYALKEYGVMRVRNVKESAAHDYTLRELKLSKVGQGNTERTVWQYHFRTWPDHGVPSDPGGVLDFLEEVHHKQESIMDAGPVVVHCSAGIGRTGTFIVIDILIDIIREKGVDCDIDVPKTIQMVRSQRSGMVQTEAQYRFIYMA
Nature of the test: in vitro protein tyrosine phosphatase assay, SHP-2 (Malachite Green). The note with it: compound at 100 μM; read-out: inhibition of SHP-2 enzymatic activity. On the set-up: SHP-2 PTP domain GST fusion protein purified in house was used as the enzyme; made in house. The class given is biochemical. An excerpt:
Candidate compounds were screened using the in vitro protein tyrosine phosphatase (PTP) assay kit (Sigma, St. Lois, Mo.). SHP-2 PTP domain GST fusion protein purified in house was used as the enzyme and a phospho-peptide corresponding to the surrounding sequence of pTyr^1146 in the insulin receptor (Thr-Arg-Asp-Ile-Tyr[PO3H2]-Glu-Thr-Asp-Tyr-Tyr) were used as the substrate. The assay determines free phosphate generated by dephosphorylation of the PTP substrate using the Malachite Green reagent. Briefly, 0.5 μg of GST-SHP-2 PTP was incubated in 40 μL assay buffer (25 mM Tris-HCl, PH7.4, 50 mM NaCl, 5 mM DTT, and 2.5 mM EDTA) with test compounds at various concentrations or DMSO at room temperature for 30 min. The PTP substrate was then added to a final concentration of 0.2 mM. The system was incubated at 30° C. for 30 min. Finally, 50 μl of Malachite Green solution was added and OD620 was measured after 5 min. In the phosphatase assays for SHP-1, CD45, TC-PTP, PTP-MEG2 (PTPN9), and LAR (PTPRF), procedures were similar, with the exception that GST-SHP-1, GST-CD45 cytoplasmic domain, GST-TC-PTP, GST-PTP-MEG2 PTP domain, and GST-LAR PTP domain purchased from Biomol International, L.P. (Plymouth Meeting, Pa.) were used instead as the enzymes.
Candidate compounds identified by CADD were screened by the in vitro tyrosine phosphatase assay as described in the Experimental Section. The GST-SHP-2 PTP domain fusion protein was incubated with the compounds at room temperature for 30 min before the phospho-peptide substrate was added to the assay systems, allowing compounds to bind to target sites in SHP-2. Each test compound was dissolved in DMSO. Initial concentration of the test compounds was 100 μM. In the experimental assay, DMSO was included as the negative control and sodium orthovanadate (100 μM), a general non-specific tyrosine phosphatase inhibitor, was used as the positive control. From the 165 commercially available compounds tested, we identified 9 compounds that inhibit SHP-2 catalytic activity with various efficiencies (FIG. 3A). […] The inhibitory effects of the compounds were dose-dependent.

In test [2] the target is T1, SHP-2 PTP domain GST fusion protein. Nature of the test: fluorescence titration (quenching of SHP-2 fluorescence). In kind it is binding. Set-up: Purified SHP-2 PTP domain GST-fusion protein was diluted into 20 mM Tris-HCl; made in house. The note with it: SHP-2 protein 3 μM, excitation 295 nm. Here is the method:
For all experiments, Purified SHP-2 PTP domain GST-fusion protein was diluted into 20 mM Tris-HCl, pH 7.5. Fluorescence spectra were recorded with a Luminescence Spectrometer LS50 (Perkin-Elmer, Boston, Mass.). Titrations were performed by increasing the test compound concentration while maintaining the SHP-2 protein concentration at 3 μM. Contributions from background fluorescence of the inhibitors were accounted for by subtracting the fluorescence of the inhibitors alone from the of the protein-inhibitor solution. The excitation wavelength was 295 nm and fluorescence was monitored from 360 to 500 nm. All reported fluorescence intensities are relative values and are not corrected for wavelength variations in detector response.
To validate that the active compounds identified were binding directly to the SHP-2 protein, we determined whether the active compounds directly interacted with the SHP-2 PTP domain using fluorescence quenching and taking advantage of the four tryptophans in the PTP domain, with Trp248 located 15 Å from the putative pY+5 pocket and Trp423 located 8 Å from the phosphatase active site. […] Therefore, their binding to SHP-2 protein could not be determined using this measurement. Thus, the fluorescence quenching experiments indicate that at least four active compounds identified do directly bind to SHP-2, thereby leading to their biological activities.

As a reminder, the inhibition is how much of the control response was suppressed.

For `O=C(CCCn1c(=O)c2cccn2c2cccnc21)NCc1ccccc1F` [#212], the inhibition at 100 µM in test [1] was 45%. As for `CNC(=S)NNC(=O)c1csc(-c2cccs2)n1` [#226], the inhibition at 100 µM in test [1] stood at 40%. On to `CNC(=S)NNC(=O)CSCCS(=O)(=O)c1ccccc1` [#234], for which, in test [2], the “quenching of SHP-2 fluorescence” value is reported as “did not show significant quenching”. Same read-out and setting: then `CCc1ccc(OCC(=O)Nc2ccc(S(N)(=O)=O)cc2)cc1` [#270], with “did not show significant quenching”; and `CSc1ccc(C2C(C#N)=C(N)Oc3[nH]nc(-c4ccccc4Cl)c32)cc1` (centres unmarked) [#284], with “strong quenching”.
